Laboratory results from patent US6960343B2, “Toll/interleukin-1 receptor adapter protein (TIRAP)” (Yale University School of Medicine, priority 2001, dated 2005).

What was measured:
dendritic cells (DCs) = assay: Dendritic cell maturation, flow cytometry of costimulatory molecules B7.1 and B7.2; assay type: cell-based, mice; settings: peptide 10 μM
Description: (§1) (A) Wild-type and MyD88^−/− dendritic cells (DCs) were induced with LPS or CpG and analyzed for expression of the costimulatory molecules B7.1 and […] flow cytometry. (B) Production of the cytokines, IL-12 and IL-6, was measured in cells that were untreated (none) or treated with LPS or CpG in the presence or absence of TIRAP peptide. (C) T cell proliferation was measured in wild-type DCs that were untreated (none), treated with LPS alone (LPS), or treated with LPS in the presence of increasing amounts of TIRAP peptide (LPS+TIRAP peptide). T cell proliferation was measured by incorporation of ^3H-thymidine into cells, expressed as cpm×10^3.
In view of the important role for TIRAP in mediating LPS-responsiveness in macrophages, the role of TIRAP in LPS-induced DC maturation was investigated. TIRAP is likely to be critical in these events because MyD88-deficient DCs retain the ability to upregulate costimulatory molecules in response to LPS stimulation (Kaisho 2001). To determine the effect of TIRAP on the expression of the costimulatory molecules B7.1 and B7.2, flow cytometry was performed on wild type and MyD88-/-DC. DCs were either unstimulated (shaded), stimulated with LPS (10 ng/ml) or CpG (10 μM) (black line), or pretreated with TIRAP peptide (10 μM) prior to stimulation with LPS or CpG (dashed line). […]

[1] = system: 1H3.1 TCR transgenic T cells; assay: CD4 T cell proliferation stimulated by DCs, 3H-thymidine incorporation; assay type: cell-based; settings: DCs from wild-type or MyD88-deficient mice, LPS, Eα peptide, 48 h culture
Description: as §1
Lastly, the effect of TIRAP peptide on T cell proliferation was evaluated. Stimulation of CD4 T cell proliferation by DCs treated with or without TIRAP peptide prior to stimulation with LPS was performed in the presence of varying concentrations of Eα peptide. DCs were fixed prior to incubation with 1H3.1 TCR transgenic T cells (specific for Eα peptide bound to I-A). Proliferation was measured by ^3H-thymidine incorporation for the last 24 h of a 48 h culture.

IL-6 = IL-6 production by dendritic cells; assay type: cell-based, mice; settings: DCs
Description: as §1
(§2) To determine the effects of the TIRAP peptide on cytokine production, DCs were treated with or without TIRAP peptide prior to stimulation with LPS or CpG (as described above), and the production of IL-12 and IL-6 was measured. Addition of TIRAP peptide inhibited production of IL-12 and IL-6 cytokines in response to stimulation with LPS, but not CpG (FIG. 6B).

IκB-α = IκB-α degradation in RAW cells, immunoblot; assay type: cell-based
Description: (§3) FIG. 5, comprising FIGS. 5A through 5D, is a series of blots depicting inhibition of LPS- but not CpG-induced NF-κB activation, PKR phosphorylation, and JNK phosphorylation by TIRAP. (A) TIRAP peptide, but not a reverse sequence peptide, inhibited LPS-induced NF-κB activation. RAW κB cells pretreated for 1 h with either the TIRAP or control peptide were stimulated with LPS (10 ng/ml) for 5 h. Samples were stimulated in duplicate. (B) Pretreatment of RAW cells with TIRAP peptide blocks LPS-induced IκB-α degradation. RAW cells pretreated with the TIRAP peptide as indicated were either left unstimulated or stimulated with LPS (10 ng/ml) for the indicated time periods. Lysates (30 μg/sample) were resolved by SDS-PAGE followed by immunoblotting with an anti-IκB-α antibody to assess IκB-α degradation. (C) TIRAP peptide inhibited LPS- but not CpG-induced NF-κB activity. RAW κB cells pretreated with the TIRAP peptide as indicated were stimulated with either LPS or CpG and harvested for reporter assay. (D) TIRAP peptide inhibited PKR and JNK phosphorylation induced by LPS but not CpG. RAW cells either untreated or pretreated with 40 μM of the TIRAP peptide were stimulated with either LPS or CpG as indicated. Lysates (30 μg/sample) were analyzed by SDS-PAGE followed by immunoblotting with antibodies that specifically recognize phosphorylated PKR or phosphorylated JNK. […]

PKR = PKR phosphorylation in RAW cells, immunoblot; assay type: cell-based; settings: 40 μM peptide
Description: (§4) FIG. 5, comprising FIGS. 5A through 5D, is a series of blots depicting inhibition of LPS- but not CpG-induced NF-κB activation, PKR phosphorylation, and JNK phosphorylation by TIRAP. (A) TIRAP peptide, but not a reverse sequence peptide, inhibited LPS-induced NF-κB activation. RAW κB cells pretreated for 1 h with either the TIRAP or control peptide were stimulated with LPS (10 ng/ml) for 5 h. Samples were stimulated in duplicate. (B) Pretreatment of RAW cells with TIRAP peptide blocks LPS-induced IκB-α degradation. RAW cells pretreated with the TIRAP peptide as indicated were either left unstimulated or stimulated with LPS (10 ng/ml) for the indicated time periods. […] Lysates (30 μg/sample) were analyzed by SDS-PAGE followed by immunoblotting with antibodies that specifically recognize phosphorylated PKR or phosphorylated JNK.
(§5) To determine whether a TIRAP mutant peptide inhibits PKR and JNK phosphorylation induced by LPS or CpG, RAW cells either untreated or pretreated with 40 μM of the TIRAP peptide were either left unstimulated or stimulated with either LPS (10 ng/ml) or CpG (10 μM) for the indicated time periods before harvest and lysis. Lysates (30 μg/sample) were analyzed by SDS-PAGE followed by immunoblotting with antibodies that specifically recognize phosphorylated PKR and JNK.

JNK = JNK phosphorylation in RAW cells, immunoblot; assay type: cell-based; settings: 40 μM peptide
Description: as §4, §5

IL-12 = IL-12 production by dendritic cells; assay type: cell-based, mice; settings: DCs
Description: as §1, §2

NF-κB = assay: NF-κB-dependent luciferase reporter assay in RAW κB macrophage cell line; assay type: cell-based; settings: RAW κB cells
Description: as §3

TIRAP peptide: synthetic peptide corresponding to the P125 region of mTIRAP linked to the C-terminus of a peptide derived from antennapedia (RQIKIWFQNRRMKWKKLQLRDAAPGGAIVS; TIRAP/Antennapedia fusion protein)
CpG-induced DC maturation (dendritic cells (DCs); DCs, CpG 10 μM): no effect | LPS-induced upregulation of B7.1 and B7.2 molecules (dendritic cells (DCs); wild-type and MyD88-deficient DCs, LPS 10 ng/ml): abolished | T cell proliferation induced by peptide-treated DCs [1]: unable to induce T cell proliferation | production of IL-6 in response to CpG (IL-6; peptide before CpG stimulation): not CpG | production of IL-6 in response to LPS (IL-6; peptide before LPS stimulation): inhibited | LPS-induced IκB-α degradation (IκB-α; 1 hour pretreatment with 40 μM peptide, LPS 10 ng/ml): did not induce IκB-α degradation | inhibition of CpG-induced IκB-α degradation (IκB-α; CpG): did not inhibit | inhibition of PKR phosphorylation induced by CpG (PKR; CpG 10 μM): not CpG | inhibition of PKR phosphorylation induced by LPS (PKR; LPS 10 ng/ml): inhibited | inhibition of JNK phosphorylation induced by CpG (JNK; CpG): not CpG | inhibition of JNK phosphorylation induced by LPS (JNK; LPS): inhibited | production of IL-12 in response to CpG (IL-12; peptide before CpG stimulation): not CpG | production of IL-12 in response to LPS (IL-12; peptide before LPS stimulation): inhibited | inhibition of LPS-induced NF-κB activation (NF-κB; 1 hour pretreatment, LPS 10 ng/ml 5 hours, TIRAP peptide 50 μM): potently inhibited | inhibition of CpG-induced NF-κB activation (NF-κB; CpG 10 μM 5 hours): did not inhibit
